Test results taken from PubChem BioAssay AID248 (DTP/NCI, 2004).
Several values for one entry are separate records, joined by “and”; a condition that tells them apart may be missing. Equal entries are not always repeated. Inconclusive results and toxic doses are left out. Rule as the data show it: active = T/C of 150% or more; inactive = T/C below 125%.

Test system: L1210 leukemia ip in BDF1 mice, survival T/C
Test: NCI In Vivo Anticancer Drug Screen. Data for tumor model L1210 Leukemia (intraperitoneal) in B6D2F1 (BDF1) mice
Details: higher = longer survival
In short: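 Antitumor effect is assessed in tumor-bearing animals. Survival in the compound arm is compared with a vehicle-dosed control arm and expressed as their quotient.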

[1] = endpoint: mean survival time, dose: 100.0 mg/kg/injection, schedule: Q04DX002 (ip), vehicle: saline
[2] = endpoint: mean survival time, dose: 200.0 mg/kg/injection, schedule: Q04DX002 (ip), vehicle: saline
[3] = endpoint: mean survival time, dose: 100.0 mg/kg/injection, schedule: Q01DX001 (ip), vehicle: saline
[4] = endpoint: mean survival time, dose: 200.0 mg/kg/injection, schedule: Q01DX001 (ip), vehicle: saline
[5] = endpoint: mean survival time, dose: 400.0 mg/kg/injection, schedule: Q01DX001 (ip), vehicle: saline
[6] = endpoint: mean survival time, dose: 100.0 mg/kg/injection, schedule: Q01DX009 (ip), vehicle: saline
[7] = endpoint: mean survival time, dose: 100.0 mg/kg/injection, schedule: Q04DX003 (ip), vehicle: saline
[8] = endpoint: mean survival time, dose: 200.0 mg/kg/injection, schedule: Q01DX009 (ip), vehicle: saline
[9] = endpoint: mean survival time, dose: 200.0 mg/kg/injection, schedule: Q04DX003 (ip), vehicle: saline
[10] = endpoint: mean survival time, dose: 400.0 mg/kg/injection, schedule: Q04DX003 (ip), vehicle: saline
[11] = endpoint: mean survival time, dose: 100.0 mg/kg/injection, schedule: Q04DX003 (ip), vehicle: Klucel (hydroxypropylcellulose) (HPC)
[12] = endpoint: mean survival time, dose: 400.0 mg/kg/injection, schedule: Q04DX003 (ip), vehicle: Klucel (hydroxypropylcellulose) (HPC)
[13] = endpoint: mean survival time, dose: 50.0 mg/kg/injection, schedule: Q01DX009 (ip), vehicle: Klucel (hydroxypropylcellulose) (HPC)
[14] = endpoint: mean survival time, dose: 100.0 mg/kg/injection, schedule: Q01DX009 (ip), vehicle: Klucel (hydroxypropylcellulose) (HPC)
[15] = endpoint: mean survival time, dose: 200.0 mg/kg/injection, schedule: Q01DX009 (ip), vehicle: Klucel (hydroxypropylcellulose) (HPC)
[16] = endpoint: mean survival time, dose: 200.0 mg/kg/injection, schedule: Q04DX003 (ip), vehicle: Klucel (hydroxypropylcellulose) (HPC)
[17] = endpoint: mean survival time, dose: 100.0 mg/kg/injection, schedule: Q04DX002 (ip), vehicle: Klucel (hydroxypropylcellulose) (HPC)
[18] = endpoint: mean survival time, dose: 200.0 mg/kg/injection, schedule: Q04DX002 (ip), vehicle: Klucel (hydroxypropylcellulose) (HPC)
[19] = endpoint: mean survival time, dose: 6.25 mg/kg/injection, schedule: Q01DX009 (ip), vehicle: Klucel (hydroxypropylcellulose) (HPC)
[20] = endpoint: mean survival time, dose: 12.5 mg/kg/injection, schedule: Q01DX009 (ip), vehicle: Klucel (hydroxypropylcellulose) (HPC)
[21] = endpoint: mean survival time, dose: 25.0 mg/kg/injection, schedule: Q01DX009 (ip), vehicle: Klucel (hydroxypropylcellulose) (HPC)
[22] = endpoint: mean survival time, dose: 25.0 mg/kg/injection, schedule: Q04DX003 (ip), vehicle: Klucel (hydroxypropylcellulose) (HPC)
[23] = endpoint: mean survival time, dose: 50.0 mg/kg/injection, schedule: Q04DX003 (ip), vehicle: Klucel (hydroxypropylcellulose) (HPC)
[24] = endpoint: mean survival time, dose: 400.0 mg/kg/injection, schedule: Q04DX002 (ip), vehicle: Klucel (hydroxypropylcellulose) (HPC)

Measured: T/C

N#CC(C#N)N=O (tested in a mixture with another compound)
inactive: endpoint: mean survival time, dose: 25.0 mg/kg/injection, schedule: Q04DX002 (ip), vehicle: saline 89 % of control | endpoint: mean survival time, dose: 50.0 mg/kg/injection, schedule: Q04DX002 (ip), vehicle: saline 101 % of control | [1] 95 % of control and 97 % of control | [2] 105 % of control

COc1ccccc1C(=O)P(=O)(OC)OC
inactive: [3] 104 % of control | [4] 93 % of control | [5] 95 % of control

CCCCOB(OCCCC)Oc1c(C(C)(C)C)cccc1C(C)(C)C
inactive: [6] 106 % of control | [7] 89 % of control | [8] 93 % of control | [9] 92 % of control | endpoint: mean survival time, dose: 400.0 mg/kg/injection, schedule: Q01DX009 (ip), vehicle: saline 108 % of control | [10] 91 % of control

O=C1OC(c2ccccc2)(c2ccccc2)Cc2ccccc21
inactive: endpoint: mean survival time, dose: 100.0 mg/kg/injection, schedule: Q01DX009 (ip), vehicle: saline with Tween-80 97 % of control | [11] 93 % of control | endpoint: mean survival time, dose: 200.0 mg/kg/injection, schedule: Q01DX009 (ip), vehicle: saline with Tween-80 106 % of control | endpoint: mean survival time, dose: 400.0 mg/kg/injection, schedule: Q01DX009 (ip), vehicle: saline with Tween-80 95 % of control | [12] 86 % of control

CC1Cc2ccccc2C1=O (configuration not stated)
inactive: endpoint: mean survival time, dose: 100.0 mg/kg/injection, schedule: Q04DX003 (ip), vehicle: saline with Tween-80 98 % of control | endpoint: mean survival time, dose: 200.0 mg/kg/injection, schedule: Q04DX003 (ip), vehicle: saline with Tween-80 98 % of control | endpoint: mean survival time, dose: 400.0 mg/kg/injection, schedule: Q04DX003 (ip), vehicle: saline with Tween-80 103 % of control

ClCCC(c1ccccc1)N1CCCCC1 (configuration not stated)
inactive: endpoint: mean survival time, dose: 44.0 mg/kg/injection, schedule: Q01DX001 (ip), vehicle: saline 97 % of control and 106 % of control | endpoint: mean survival time, dose: 66.0 mg/kg/injection, schedule: Q01DX001 (ip), vehicle: saline 96 % of control and 97 % of control | endpoint: mean survival time, dose: 150.0 mg/kg/injection, schedule: Q01DX001 (ip), vehicle: saline 97 % of control and 92 % of control | [4] 93 % of control

COc1ccc([N+](=O)[O-])cc1NC(=O)Nc1cccc(O)c1
inactive: [13] 90 % of control | [14] 90 % of control | [15] 90 % of control

O=[N+]([O-])c1cc([N+](=O)[O-])c(Nc2cccc3ccccc23)c([N+](=O)[O-])c1
inactive: [13] 94 % of control | [14] 99 % of control | [11] 100 % of control | [15] 100 % of control | [16] 102 % of control | [12] 102 % of control

CC1(C)C2CCC1(CS(=O)(=O)O)C(=O)C2Br.[Ag] (configuration not stated)
inactive: endpoint: mean survival time, dose: 1.56 mg/kg/injection, schedule: Q01DX009 (ip), vehicle: saline 101 % of control | endpoint: mean survival time, dose: 3.12 mg/kg/injection, schedule: Q01DX009 (ip), vehicle: saline 108 % of control | endpoint: mean survival time, dose: 6.25 mg/kg/injection, schedule: Q01DX009 (ip), vehicle: saline 90 % of control | endpoint: mean survival time, dose: 12.5 mg/kg/injection, schedule: Q01DX009 (ip), vehicle: saline with Tween-80 93 % of control

CCOCCOCCOC(C)Oc1ccccc1 (configuration not stated)
inactive: [1] 104 % of control | [2] 111 % of control | endpoint: mean survival time, dose: 400.0 mg/kg/injection, schedule: Q04DX002 (ip), vehicle: saline 104 % of control

CCCC(CC)C(C(=O)OCC)C1=NC(C)(C)CC(C)O1 (configuration not stated)
inactive: endpoint: mean survival time, dose: 100.0 mg/kg/injection, schedule: Q01DX009 (ip), vehicle: saline sonified 98 % of control | endpoint: mean survival time, dose: 200.0 mg/kg/injection, schedule: Q01DX009 (ip), vehicle: saline sonified 104 % of control | endpoint: mean survival time, dose: 400.0 mg/kg/injection, schedule: Q01DX009 (ip), vehicle: saline sonified 93 % of control

NC(N)=NCCCCCC(=O)O
inactive: [6] 95 % of control | [7] 103 % of control | [8] 88 % of control | [9] 100 % of control | [10] 101 % of control

OC1C2CCN(CC2)C1C(c1ccccc1)c1ccc(F)cc1 (configuration not stated)
inactive: [17] 91 % of control | [18] 87 % of control

CCOC(=O)CC(c1cccc2ccccc12)c1cccc2ccc3ccccc3c12 (configuration not stated)
inactive: [11] 92 % of control | [16] 86 % of control | [12] 91 % of control

CC(=O)c1ccc(CC2CCC2)cc1
inactive: endpoint: mean survival time, dose: 75.0 mg/kg/injection, schedule: Q01DX009 (ip), vehicle: Klucel (hydroxypropylcellulose) (HPC) 97 % of control | endpoint: mean survival time, dose: 150.0 mg/kg/injection, schedule: Q01DX009 (ip), vehicle: Klucel (hydroxypropylcellulose) (HPC) 112 % of control | endpoint: mean survival time, dose: 300.0 mg/kg/injection, schedule: Q01DX009 (ip), vehicle: Klucel (hydroxypropylcellulose) (HPC) 110 % of control

ClCc1c(CCl)c2c(c3c1CCCC3)CCCC2
inactive: [11] 100 % of control | [16] 100 % of control | [12] 103 % of control

OC(CCN1CCCC1)(c1ccccc1)C1CCCCC1 (configuration not stated)
inactive: [19] 104 % of control and 108 % of control | [20] 95 % of control and 97 % of control and 102 % of control | [21] 103 % of control and 105 % of control | [22] 111 % of control | [13] 100 % of control and 106 % of control (2×) | [23] 101 % of control | [14] 103 % of control and 91 % of control | [11] 92 % of control | endpoint: median survival time, dose: 12.5 mg/kg/injection, schedule: Q01DX009 (ip), vehicle: Klucel (hydroxypropylcellulose) (HPC) 96 % of control | endpoint: median survival time, dose: 25.0 mg/kg/injection, schedule: Q01DX009 (ip), vehicle: Klucel (hydroxypropylcellulose) (HPC) 106 % of control | endpoint: median survival time, dose: 50.0 mg/kg/injection, schedule: Q01DX009 (ip), vehicle: Klucel (hydroxypropylcellulose) (HPC) 103 % of control | endpoint: median survival time, dose: 100.0 mg/kg/injection, schedule: Q01DX009 (ip), vehicle: Klucel (hydroxypropylcellulose) (HPC) 102 % of control

Cn1cnccc1=S
inactive: endpoint: mean survival time, dose: 25.0 mg/kg/injection, schedule: Q01DX001 (ip), vehicle: saline 96 % of control | endpoint: mean survival time, dose: 50.0 mg/kg/injection, schedule: Q01DX001 (ip), vehicle: saline 108 % of control

N#CC(OS(=O)(=O)c1ccccc1)c1ccccc1 (configuration not stated)
inactive: endpoint: mean survival time, dose: 50.0 mg/kg/injection, schedule: Q01DX001 (ip), vehicle: other 89 % of control | endpoint: mean survival time, dose: 100.0 mg/kg/injection, schedule: Q01DX001 (ip), vehicle: other 97 % of control | endpoint: mean survival time, dose: 200.0 mg/kg/injection, schedule: Q01DX001 (ip), vehicle: other 105 % of control

CCCCCCCCCCCC(=O)NC(CCC(=O)O)C(=O)O (configuration not stated)
inactive: [3] 111 % of control | [4] 103 % of control | [5] 105 % of control

O=C(O)c1ccc(Cl)cc1F
inactive: [17] 97 % of control | [18] 108 % of control | [24] 97 % of control

CCCS(=O)(=O)N1CCCC(C)C1 (configuration not stated)
inactive: [17] 94 % of control | [18] 97 % of control | [24] 97 % of control

Nc1c(Cl)cc(C(=O)NC2CC2)cc1Cl
inactive: [19] 103 % of control | [20] 94 % of control | [21] 92 % of control | [22] 104 % of control | [13] 97 % of control | [23] 98 % of control | [14] 100 % of control | [11] 104 % of control

Cc1ccccc1OCC(O)COC(N)=O (configuration not stated)
inactive: endpoint: mean survival time, dose: 0.62 mg/kg/injection, schedule: Q04DX003 (ip), vehicle: saline 100 % of control | endpoint: mean survival time, dose: 1.25 mg/kg/injection, schedule: Q04DX003 (ip), vehicle: saline 100 % of control | endpoint: mean survival time, dose: 2.5 mg/kg/injection, schedule: Q04DX003 (ip), vehicle: saline 112 % of control | endpoint: mean survival time, dose: 5.0 mg/kg/injection, schedule: Q04DX003 (ip), vehicle: saline 98 % of control | endpoint: mean survival time, dose: 10.0 mg/kg/injection, schedule: Q04DX003 (ip), vehicle: saline 98 % of control

NC(N)=NCC(=O)O
inactive: endpoint: mean survival time, dose: 75.0 mg/kg/injection, schedule: Q01DX001 (ip), vehicle: saline with Tween-80 105 % of control | endpoint: mean survival time, dose: 150.0 mg/kg/injection, schedule: Q01DX001 (ip), vehicle: saline with Tween-80 100 % of control | endpoint: mean survival time, dose: 300.0 mg/kg/injection, schedule: Q01DX001 (ip), vehicle: saline with Tween-80 102 % of control
